According to paper PMC5701137, “Discovery of novel choline acetyltransferase inhibitors using structure-based virtual screening” (Scientific Reports, 2017):

Legend:
Type in all cases: biochemical
[1] = biological target: T1, human rChAT (Homo sapiens, UniProt P28329); test: In vitro ChAT activity inhibition fluorometric assay and kinetic studies; details: 100 µM compound; compared to control; mean of three experiments in triplicate; read-out: ChAT % IR (inhibition rate)
T1 construct: made in house; host or cells: E. coli BL21 Rosetta2
T1 sequence (P28329 1-630 isoform P28329-3): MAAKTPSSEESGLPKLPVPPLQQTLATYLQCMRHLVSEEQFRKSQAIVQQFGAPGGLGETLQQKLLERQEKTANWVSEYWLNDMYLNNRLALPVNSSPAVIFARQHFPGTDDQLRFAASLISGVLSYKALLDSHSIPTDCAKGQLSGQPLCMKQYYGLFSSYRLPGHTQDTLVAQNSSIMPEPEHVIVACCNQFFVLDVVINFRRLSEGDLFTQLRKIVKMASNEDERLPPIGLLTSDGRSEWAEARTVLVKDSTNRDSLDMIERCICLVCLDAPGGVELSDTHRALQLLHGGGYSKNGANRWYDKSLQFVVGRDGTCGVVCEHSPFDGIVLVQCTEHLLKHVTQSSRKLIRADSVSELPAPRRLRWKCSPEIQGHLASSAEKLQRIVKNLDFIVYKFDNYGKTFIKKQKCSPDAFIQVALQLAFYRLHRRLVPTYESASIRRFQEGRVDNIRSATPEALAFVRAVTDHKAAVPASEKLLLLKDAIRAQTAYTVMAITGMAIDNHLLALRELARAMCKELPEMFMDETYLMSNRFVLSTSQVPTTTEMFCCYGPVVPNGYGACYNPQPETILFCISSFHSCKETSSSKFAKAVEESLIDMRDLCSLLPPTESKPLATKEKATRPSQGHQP
Experimental: ChAT activity was measured using our newly developed fluorometric assay, using human recombinant ChAT (rChAT) protein. The reagents, choline chloride, acetyl coenzyme-A (ACoA, A2181) and 7-Diethylamino-3-(4-maleimidophenyl)-4-methylcoumarin (CPM) were purchased from Sigma-Aldrich (St. Louis, MO, USA).
The ChAT assay could be run in either 96-well or 384-well plates. For 96-well plates, 50 μL/well of 0.212 µg/ml (final concentration) of the recombinant ChAT was incubated with 100 μM different Asinex compounds (50 μL/well) for 10–30 minutes at room temperature in dilution buffer (10 mM Tris-HCl, pH 7.4, 150 mM NaCl, 1.0 mM EDTA, 0.05% (v/v) Triton X-100). Then, 50 µL of a cocktail-A [dilution buffer containing choline chloride (final concentration 150 µM), ACoA (final concentration 13.3 µM) and CPM (final concentration 15 µM)] was added to each well. Immediately after adding the cocktail-A, the changes in fluorescence was monitored kinetically at 479 nm after exciting at 390 nm at 1–2 minute intervals for 15–20 minutes using a microplate spectrophotometer reader (Infinite M1000, Tecan).
Each Asinex compounds were run in triplicates. On each 96-wells plate, several enzyme wells without inhibitor were also included during measurements as control and for estimating the inhibition level. Negative controls were wells without enzyme. The percentage inhibition for each Asinex compound was calculated based on the enzyme control value as a reference (100% activity). The compounds showing over 50% inhibition of enzyme activity were selected for further kinetic studies.
(§1) For kinetic studies, a similar protocol as inhibition assay was followed; a dilution series of five different concentrations ranging from 10^−6 to 10^−9 M were prepared for each selected Asinex compounds. For ChAT, the A-CoA was kept constant at 10 μM (final) but the concentration of choline chloride varied between 320–10 μM. For BuChE, BTC was used as the substrate in the concentrations ranging from 0.0625 to 2 mM. For AChE, ATC was used as the substrate in the concentrations ranging from 0.0312 to 1 mM. Each compound concentration was measured in duplicates. The rate of enzyme activity (as ∆OD/hr kinetic data) was calculated and processed using the GraphPad Prism 7 analysis software. The inhibitory constant (Ki) values were determined from the dose-response curve and the half-maximal inhibitory concentration (IC50) values were calculated by plotting the percentage enzyme activity vs. the log of the Asinex compound concentrations and fitting the data using the nonlinear regression Enzyme Kinetics-Inhibition function.
The Michaelis-Menten constant (Km) and maximal velocity (Vmax) values were calculated from substrate-velocity curve after fitting the data with non-linear regression Michaelis-Menten kinetic function. The Km and Vmax values were further used to plot the Lineweaver-Burk plots; the plots were fitted using linear regression function.

[2] = biological target: T2, recombinant human AChE (Homo sapiens, UniProt P22303); test: Modified Ellman's colorimetric assay for AChE and kinetic studies; details: for inhibition at 200 µM: 200 µM compound, compared to control, mean of three experiments in triplicate, read-out: AChE % IR (inhibition rate); for Ki / IC50: mean of two experiments; for IC50: substrate ATC 0.5 mM
T2 construct: purchased Sigma C1682
From the text: (§2) A modified version of Ellman’s colorimetric assay[16],[17] was adapted to a high throughput assay for the enzymatic activity of BuChE and AChE. The reagent, butyrylthiocholine iodide (BTC), acetylthiocholine iodide (ATC), 5,5′-dithiobis (2-nitrobenzoic acid) (DTNB) were purchased from Sigma-Aldrich (St. Louis, MO, USA). The modified assay details are as previously described[34],[35]. The main modification concerned with the high throughput adaptation of the assay for use in 384-well plates. Briefly, 25 μL/well of a 1:450 diluted solution of a pooled human plasma and 1:768 diluted (3.5 ng/ml final concentration) purified recombinant human AChE protein (Sigma, Cat no. C1682) was used for measurement of BuChE and AChE activity, respectively. In the initial in vitro screening step, the wells were pre-incubated with 25 μL/wells of different Asinex compounds for 10–30 minutes at room temperature. The concentration of the compounds working solution was 3X to give a final concentration of 200 μM in a final volume of 75 μL in each well. The stock concentration of the compounds were prepared in 100% DMSO. The stock concentration was chosen usually at 10 mM, allowing the final DMSO concentration in the wells to be less than 4%. Finally, 25 μL of a cocktail mix prepared in Na/K phosphate buffer, containing DTNB (final concentration 0.4 mM) and BTC, (final concentration 1 mM) or ATC (final concentration 0.5 mM) was added to each well and the changes in absorbance was monitored at 412 nm wavelength for 15–20 minutes with one-minute interval, using a microplate spectrophotometer reader (Infinite M1000, Tecan). The rate of the enzyme activity was determined from the linear part of the kinetic reaction curves as ∆OD/time.
as §1

[3] = biological target: T3, plasma BuChE (Homo sapiens, UniProt P06276); test: Modified Ellman's colorimetric assay for BuChE (pooled human plasma) and kinetic studies; details: 200 µM compound; compared to control; mean of three experiments in triplicate; read-out: BuChE % IR (inhibition rate)
T3 construct: 1:450 diluted solution of a pooled human plasma; from tissue; host or cells: pooled human plasma
From the text: as §2, §1

T2 sequence (P22303 32-614): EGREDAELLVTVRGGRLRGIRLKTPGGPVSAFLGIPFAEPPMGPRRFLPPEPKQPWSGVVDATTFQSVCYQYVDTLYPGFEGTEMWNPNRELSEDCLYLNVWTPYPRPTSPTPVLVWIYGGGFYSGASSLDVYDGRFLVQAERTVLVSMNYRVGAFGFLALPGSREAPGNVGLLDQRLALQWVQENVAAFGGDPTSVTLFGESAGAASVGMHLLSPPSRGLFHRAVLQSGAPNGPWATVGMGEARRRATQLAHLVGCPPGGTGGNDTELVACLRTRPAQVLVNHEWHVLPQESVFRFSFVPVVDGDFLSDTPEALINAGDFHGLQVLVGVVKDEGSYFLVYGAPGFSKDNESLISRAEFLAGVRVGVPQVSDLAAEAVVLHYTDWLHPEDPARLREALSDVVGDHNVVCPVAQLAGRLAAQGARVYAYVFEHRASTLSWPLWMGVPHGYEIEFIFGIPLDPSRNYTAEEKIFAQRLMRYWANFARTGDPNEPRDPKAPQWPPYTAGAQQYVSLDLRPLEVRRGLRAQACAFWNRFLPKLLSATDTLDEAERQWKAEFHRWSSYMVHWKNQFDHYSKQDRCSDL
T3 sequence (P06276 29-602): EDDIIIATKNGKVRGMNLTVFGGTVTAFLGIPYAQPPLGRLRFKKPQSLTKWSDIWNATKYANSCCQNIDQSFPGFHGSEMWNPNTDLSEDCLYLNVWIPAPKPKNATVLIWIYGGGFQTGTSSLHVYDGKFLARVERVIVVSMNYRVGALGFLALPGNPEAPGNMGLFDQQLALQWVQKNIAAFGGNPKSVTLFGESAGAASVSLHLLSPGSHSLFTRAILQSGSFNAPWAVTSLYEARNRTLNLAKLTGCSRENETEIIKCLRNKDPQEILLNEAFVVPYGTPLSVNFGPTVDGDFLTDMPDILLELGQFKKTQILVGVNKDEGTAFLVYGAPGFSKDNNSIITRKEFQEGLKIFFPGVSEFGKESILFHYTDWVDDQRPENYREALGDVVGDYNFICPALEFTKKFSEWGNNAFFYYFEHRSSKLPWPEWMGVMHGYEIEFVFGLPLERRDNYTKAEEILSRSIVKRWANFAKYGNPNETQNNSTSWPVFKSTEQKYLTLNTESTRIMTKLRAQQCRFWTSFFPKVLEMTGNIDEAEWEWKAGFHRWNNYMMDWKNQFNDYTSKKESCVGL

COc1cc(OC)cc(C(=O)N2CCN(C(=O)C(c3ccccc3)c3ccccc3)CC2)c1 [Compound A1]
inhibition at 100 µM [1]: 0%
inhibition at 200 µM [2]: 0%
inhibition at 200 µM [3]: 4.8%

CCOC(=O)c1sc2ncn(CCc3ccccc3)c(=O)c2c1C [Compound A3]
inhibition at 100 µM [1]: 6.9%
inhibition at 200 µM [2]: 0%
inhibition at 200 µM [3]: 15.1%

Cc1c(C)n(C(=O)CSc2nnc(-c3ccccc3)o2)c2ccccc12 [Compound A4]
inhibition at 100 µM [1]: 26.7%
inhibition at 200 µM [2]: 0%
inhibition at 200 µM [3]: 14.4%

CC1(C)CC(=O)C(=CNCC2CCN(C(=O)Cc3ccc(Cl)cc3)CC2)C(=O)C1 [Compound A5]
inhibition at 100 µM [1]: 2.1%
inhibition at 200 µM [2]: 7%
inhibition at 200 µM [3]: 9.2%

Cc1cc2nc(C3CCN(CC(=O)Nc4ccccc4)CC3)[nH]c2cc1C [Compound A6]
inhibition at 100 µM [1]: 0%
inhibition at 200 µM [2]: 11.9%
inhibition at 200 µM [3]: 20.2%

Clc1cccc(N2CCN(Cc3nnn(Cc4ccco4)n3)CC2)c1 [Compound A7]
inhibition at 100 µM [1]: 7.2%
inhibition at 200 µM [2]: 15.8%
inhibition at 200 µM [3]: 29.9%

COc1ccc(Cl)cc1NC(=O)CCN1CCN(c2ccccc2C)CC1 [Compound B2]
inhibition at 100 µM [1]: 0%
inhibition at 200 µM [2]: 0%
inhibition at 200 µM [3]: 18.5%

COc1ccc(CC(=O)Nc2cc3oc4ccccc4c3cc2OC)cc1 [Compound B3]
inhibition at 100 µM [1]: 0%
inhibition at 200 µM [2]: 0%
inhibition at 200 µM [3]: 16.6%

COc1cc(CN2CCC(C(=O)N3CCC(C)CC3)CC2)ccc1OCc1ccccc1 [Compound B5]
inhibition at 100 µM [1]: 0%
inhibition at 200 µM [2]: 26.1%
inhibition at 200 µM [3]: 39.5%

COc1ccccc1N1CCN(c2nc(-c3ccc(C)cc3)cc(=O)[nH]2)CC1 [Compound B6]
inhibition at 100 µM [1]: 7.6%
inhibition at 200 µM [2]: 2.6%
inhibition at 200 µM [3]: 11%

O=C(Nc1ccc(CN2CCOCC2)cc1)c1ccc2c(c1)[nH]c(=O)n2CCc1ccccc1 [Compound B7]
inhibition at 100 µM [1]: 13.3%
Ki [2]: 65.4 µM
IC50 [2]: 40.1 µM
inhibition at 200 µM [3]: 14.9%

CN(C(=O)COc1ccc(-c2nn(C)c(=O)c3ccccc23)cc1)C1CCCCC1 [Compound C1]
inhibition at 100 µM [1]: 0%
Ki [2]: 42.3 µM
IC50 [2]: 71.9 µM
inhibition at 200 µM [3]: 9.8%

CCn1c(CNC(=O)COc2ccc(Cl)cc2)cc2ccccc21 [Compound C3]
inhibition at 100 µM [1]: 0%
inhibition at 200 µM [2]: 22%
inhibition at 200 µM [3]: 20.1%

COc1ccc(-c2nnc(-c3cc4c(ccc5ccccc54)oc3=O)o2)cc1 [Compound C6]
inhibition at 200 µM [2]: 33.1%
inhibition at 200 µM [3]: 34.7%

COCCNc1c(-c2cc3cc(C)ccc3[nH]c2=O)nc2ccc(Cl)cn12 [Compound C7]
inhibition at 100 µM [1]: 0%
inhibition at 200 µM [2]: 15.7%
inhibition at 200 µM [3]: 29.4%

Cc1cccc(N2CCN(CC(=O)Nc3ccc(C)c(F)c3)CC2)c1 [Compound D1]
inhibition at 100 µM [1]: 0%
inhibition at 200 µM [2]: 0%
inhibition at 200 µM [3]: 20%

CC(=O)c1ccc(NC(=O)CN2CCN(c3cccc(C)c3C)CC2)cc1 [Compound D2]
inhibition at 100 µM [1]: 0%
inhibition at 200 µM [2]: 18.1%
inhibition at 200 µM [3]: 7%

COc1ccc(NC(=O)Cn2nc(C(F)(F)F)c3c2CCCC3)c(OC)c1 [Compound D5]
inhibition at 100 µM [1]: 0%
inhibition at 200 µM [2]: 4.2%
inhibition at 200 µM [3]: 7.8%

COc1ccc(-c2cc(C(F)(F)F)nc(SCCC(=O)N3CCN(C)CC3)n2)cc1 [Compound D6]
inhibition at 100 µM [1]: 4.8%
inhibition at 200 µM [2]: 0%
inhibition at 200 µM [3]: 9.3%

CCOc1ccc2[nH]c(=O)c(CN(Cc3ccccc3)C(=O)N3CCCC3)cc2c1 [Compound D7]
inhibition at 100 µM [1]: 0%
inhibition at 200 µM [2]: 27.7%
inhibition at 200 µM [3]: 22.4%

CCc1ccccc1NC(=O)CSc1nnc(-c2cccnc2)n1CC [Compound E2]
inhibition at 100 µM [1]: 4.1%
inhibition at 200 µM [2]: 2.7%
inhibition at 200 µM [3]: 12%

O=C(CSc1nnc(-c2cccc(F)c2)o1)N1CCC(Cc2ccccc2)CC1 [Compound E3]
inhibition at 100 µM [1]: 10.3%
inhibition at 200 µM [2]: 10.2%
inhibition at 200 µM [3]: 23%

COc1cccc(OCC(=O)Nc2cc3oc4ccccc4c3cc2OC)c1 [Compound E4]
inhibition at 100 µM [1]: 4.8%
inhibition at 200 µM [2]: 1.5%
inhibition at 200 µM [3]: 11.7%

C=C(C)CN1N=C(C)Cn2c1nc1c2c(=O)n(C/C=C/c2ccccc2)c(=O)n1C [Compound E5]
inhibition at 100 µM [1]: 0%
inhibition at 200 µM [2]: 4.1%
inhibition at 200 µM [3]: 12.8%

Cc1ccccc1OCC(=O)Oc1ccc2c(C)cc(=O)oc2c1 [Compound E6]
inhibition at 100 µM [1]: 2.5%
inhibition at 200 µM [2]: 0%
inhibition at 200 µM [3]: 13.2%

Cc1onc(-c2ccccc2Cl)c1C(=O)N1CCN(Cc2ccc3c(c2)OCO3)CC1 [Compound E7]
inhibition at 100 µM [1]: 0%
inhibition at 200 µM [2]: 0.5%
inhibition at 200 µM [3]: 37.5%
